Values belong to the molecule of their own block, whether it stands above or below them.
What was measured:
OX1R [1] = molecular target: T1, OX1R (Oryctolagus cuniculus, UniProt G1SPJ3); experiment: Radio-ligand displacement binding, CHO-K1 membranes, rabbit OX1R; details: read-out: OX1R affinity (Ki)
T1 sequence (G1SPJ3 1-416): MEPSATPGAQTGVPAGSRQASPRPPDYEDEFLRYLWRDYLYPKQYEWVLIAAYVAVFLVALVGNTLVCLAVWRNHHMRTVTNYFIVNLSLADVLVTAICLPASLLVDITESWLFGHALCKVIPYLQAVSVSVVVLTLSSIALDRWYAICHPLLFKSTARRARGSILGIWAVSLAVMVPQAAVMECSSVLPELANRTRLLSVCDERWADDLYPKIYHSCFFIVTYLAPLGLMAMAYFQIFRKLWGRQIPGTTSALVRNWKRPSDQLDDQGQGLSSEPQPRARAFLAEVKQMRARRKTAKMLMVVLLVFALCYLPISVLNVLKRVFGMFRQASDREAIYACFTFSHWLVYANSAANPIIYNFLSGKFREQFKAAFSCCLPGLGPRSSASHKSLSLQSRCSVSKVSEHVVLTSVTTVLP
Procedure: (§1) MK-1064 was evaluated for its ability to inhibit orexin-peptide-A-induced calcium mobilization in CHO cell lines separately expressing OX1R and OX2R from mice, rats, rabbits, dogs, rhesus monkeys and humans.
(§2) Binding and functional blockade of OX1R and OX2R with MK-1064 relative to other 2-SORAs and the DORA, MK-6096, were assessed using membranes from Chinese hamster ovary (CHO)-K1 cells (American Type Tissue Collection, Manassas, VA) transfected to express human, mouse, rat, rabbit, dog, or rhesus monkey OX1R or OX2R receptors, as described previously. The kinetics of binding to human OX2R was assessed by radioligand displacement on CHO-K1 cells expressing the receptor. […] The ON rate analysis was performed by presoaking GF/B filters in 0.3% polyethyleneimine (Sigma) using a Skatron 12-well cell harvester and cold buffer at the indicated time points after addition. For OFF rate determination, binding reactions were allowed to proceed to equilibrium and terminated with 1000x [Kd] of unlabeled antagonist and filtered as above at pre-determined time points. Ultima Gold^TM (PerkinElmer 6013327) scintillation cocktail was added to each filter disc and counted on a PerkinElmer TriCarb 2910 scintillation counter. Data were analyzed using GraphPad® Prism v 6.04 (San Diego, CA, USA). The KON rate was determined according to the equation, KON = (KOBS − KOFF)/[ligand].

OX2R [2] = molecular target: T2, OX2R (Rattus norvegicus, UniProt P56719); experiment: Radio-ligand displacement binding, CHO-K1 membranes, rat OX2R; details: for fold OX2R selectivity (Ki): OX1R Ki / OX2R Ki; for Ki: read-out: OX2R affinity (Ki)
T2 construct: expressed in transfected cells; host or cells: CHO-K1
T2 sequence (P56719 1-460): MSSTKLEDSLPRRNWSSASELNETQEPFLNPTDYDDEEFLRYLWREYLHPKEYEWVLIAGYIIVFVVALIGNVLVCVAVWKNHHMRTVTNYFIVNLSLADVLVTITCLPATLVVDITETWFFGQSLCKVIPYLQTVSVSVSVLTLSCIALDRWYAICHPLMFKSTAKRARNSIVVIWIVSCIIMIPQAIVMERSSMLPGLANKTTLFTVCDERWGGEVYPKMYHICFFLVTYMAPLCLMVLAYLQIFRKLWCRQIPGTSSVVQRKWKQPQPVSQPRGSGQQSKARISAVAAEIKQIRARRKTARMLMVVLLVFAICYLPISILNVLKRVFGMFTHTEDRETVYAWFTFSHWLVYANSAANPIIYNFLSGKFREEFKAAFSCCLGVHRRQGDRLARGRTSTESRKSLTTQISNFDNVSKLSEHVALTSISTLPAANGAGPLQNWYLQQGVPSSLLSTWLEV
Procedure: as §1, §2

OX1R [3] = molecular target: T3, OX1R (Rattus norvegicus, UniProt P56718); experiment: Radio-ligand displacement binding, CHO-K1 membranes, rat OX1R; details: read-out: OX1R affinity (Ki)
T3 construct: expressed in transfected cells; host or cells: CHO-K1
T3 sequence (P56718 1-416): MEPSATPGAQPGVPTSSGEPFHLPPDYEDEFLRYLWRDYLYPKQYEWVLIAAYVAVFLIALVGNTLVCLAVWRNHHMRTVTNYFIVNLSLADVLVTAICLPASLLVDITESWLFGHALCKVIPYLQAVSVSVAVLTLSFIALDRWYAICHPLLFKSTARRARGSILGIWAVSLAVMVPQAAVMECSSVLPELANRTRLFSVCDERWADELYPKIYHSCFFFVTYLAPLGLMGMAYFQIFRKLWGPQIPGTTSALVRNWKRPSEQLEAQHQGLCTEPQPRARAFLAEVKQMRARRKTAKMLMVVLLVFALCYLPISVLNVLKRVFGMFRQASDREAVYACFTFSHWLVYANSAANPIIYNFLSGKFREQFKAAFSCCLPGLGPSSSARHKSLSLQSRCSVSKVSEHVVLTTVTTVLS
Procedure: as §1, §2

OX2R [4] = molecular target: T4, OX2R (Homo sapiens, UniProt O43614); experiment: Inhibition of orexin-peptide-A-induced calcium mobilization in CHO cells, human OX2R; type: cell-based; set-up: expressed in transfected cells; host or cells: CHO-K1; details: for fold OX2R selectivity (Kb): OX1R Kb / OX2R Kb
T4 sequence (O43614 1-444): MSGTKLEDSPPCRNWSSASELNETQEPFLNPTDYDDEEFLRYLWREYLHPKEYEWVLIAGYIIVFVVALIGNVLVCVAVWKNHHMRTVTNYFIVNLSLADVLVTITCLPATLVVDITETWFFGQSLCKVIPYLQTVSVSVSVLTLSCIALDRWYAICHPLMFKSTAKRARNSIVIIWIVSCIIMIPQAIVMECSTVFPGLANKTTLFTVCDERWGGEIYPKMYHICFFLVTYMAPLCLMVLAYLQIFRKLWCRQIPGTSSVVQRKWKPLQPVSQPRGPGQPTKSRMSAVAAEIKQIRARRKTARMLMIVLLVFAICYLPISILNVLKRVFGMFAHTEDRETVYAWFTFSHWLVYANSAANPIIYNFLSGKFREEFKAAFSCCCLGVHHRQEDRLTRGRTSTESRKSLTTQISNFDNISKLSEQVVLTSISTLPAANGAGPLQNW
Procedure: as §1, §2

OX2R [5] = molecular target: T4, OX2R; experiment: Radio-ligand displacement binding, CHO-K1 membranes, human OX2R; set-up: expressed in transfected cells; host or cells: CHO-K1; details: for fold OX2R selectivity (Ki): OX1R Ki / OX2R Ki; for Ki: read-out: OX2R affinity (Ki)
Procedure: as §1, §2

Structure (SMILES): COc1ccc(CNC(=O)c2cc(-c3cncc(C)c3)ncc2-c2ccccc2)nc1OC [2-SORA-7]
Ki (OX1R [1]): 4390 nM
fold OX2R selectivity (Ki) (OX2R [2]): [11877] fold
Ki (OX2R [2]): 0.22 nM
Ki (OX1R [3]): 2610 nM
Kb (OX2R [4]): 12 nM
fold OX2R selectivity (Kb) (OX2R [4]): [363] fold
fold OX2R selectivity (Ki) (OX2R [5]): [5957] fold
Ki (OX2R [5]): 0.47 nM

Structure (SMILES): COc1ccc(CNC(=O)c2cc(-c3cc(Cl)cc(Cl)c3)cnc2-c2cccnc2)cc1OC [2-SORA-18]
Ki (OX1R [1]): 241 nM
fold OX2R selectivity (Ki) (OX2R [2]): [522] fold
Ki (OX2R [2]): 0.18 nM
Ki (OX1R [3]): 94 nM
Kb (OX2R [4]): 18 nM
fold OX2R selectivity (Kb) (OX2R [4]): [9] fold
fold OX2R selectivity (Ki) (OX2R [5]): [1000] fold
Ki (OX2R [5]): 0.1 nM

Structure (SMILES): COc1ccc(CNC(=O)c2cc(-c3cncc(Cl)c3)cnc2-c2ccccn2)nc1OC [MK-1064, 5″-chloro-N-[(5,6-dimethoxypyridin-2-yl)methyl]-2,2′:5′, 3″-terpyridine-3′-carbo xamide]
Ki (OX1R [1]): 2440 nM
fold OX2R selectivity (Ki) (OX2R [2]): [1288] fold
Ki (OX2R [2]): 0.83 nM
Ki (OX1R [3]): 1070 nM
Kb (OX2R [4]): 9 nM
fold OX2R selectivity (Kb) (OX2R [4]): [208] fold
fold OX2R selectivity (Ki) (OX2R [5]): [2885] fold
Ki (OX2R [5]): 0.52 nM

Ki (OX1R [1]): 4740 nM
Ki (OX2R [2]): 1.93 nM
Ki (OX1R [3]): 2390 nM
Kb (OX2R [4]): 14 nM
Ki (OX2R [5]): 0.97 nM
Structure (SMILES): COc1ccc(CNC(=O)c2cc(-c3cncc(C)c3)ncc2-c2nccs2)nc1OC [MK-3697]

Structure (SMILES): Cc1ccc(-c2ncccn2)c(C(=O)N2C[C@H](COc3ccc(F)cn3)CC[C@H]2C)c1 [MK-6096]
Ki (OX1R [1]): 2.6 nM
fold OX2R selectivity (Ki) (OX2R [2]): [11.4] fold
Ki (OX2R [2]): 0.22 nM
Ki (OX1R [3]): 2.5 nM
Kb (OX2R [4]): 11 nM
fold OX2R selectivity (Kb) (OX2R [4]): [1.0] fold
fold OX2R selectivity (Ki) (OX2R [5]): [8.1] fold
Ki (OX2R [5]): 0.31 nM
